{"source": "patent US10457709B2", "about": "“Antimicrobial peptides, their variants and uses” (priority 2015, dated 2019)", "key": {"[1]": {"tested_on": "C. quillermondiae clinical strains", "test": "MIC, clinical yeast strains", "format": "cell-based, Candida quillermondiae", "set-up": "unit: μg/ml", "details": "C. quillermondiae clinical yeast strain 1", "summary_of_the_method": "(§1)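 Antifungal testing uses potato dextrose broth; antibacterial testing uses Mueller Hinton broth. Cell density is set to 5.0×10^5 cfu/ml and incubation runs 20–24 h at 37° C. MIC is the lowest concentration, within 0.125–128 μg/ml, at which no growth is visible.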"}, "[2]": {"tested_on": "Candida albicans clinical strains", "test": "MIC, clinical yeast strains", "format": "cell-based", "set-up": "unit: μg/ml", "summary_of_the_method": "as §1"}, "[3]": {"tested_on": "Streptococcus pneumoniae clinical strains", "format": "cell-based", "set-up": "Minimum inhibitory concentration: unit: μg/ml", "details": "microdilution, Muller Hinton broth-cation adjusted, 0.02% BSA, 0.2% acetic acid", "summary_of_the_method": "as §1"}, "[4]": {"tested_on": "Serratia marcescens clinical strains", "format": "cell-based", "set-up": "Minimum inhibitory concentration: unit: μg/ml", "details": "for Minimum inhibitory concentration: microdilution, Muller Hinton broth-cation adjusted, 0.02% BSA, 0.2% acetic acid", "summary_of_the_method": "as §1"}, "[5]": {"tested_on": "Acinetobacter baumannii clinical strains", "format": "cell-based", "set-up": "Minimum inhibitory concentration: unit: μg/ml", "details": "microdilution, Muller Hinton broth-cation adjusted, 0.02% BSA, 0.2% acetic acid", "summary_of_the_method": "as §1"}, "[6]": {"tested_on": "Proteus mirabilis clinical strains", "format": "cell-based", "set-up": "Minimum inhibitory concentration: unit: μg/ml", "details": "for Minimum inhibitory concentration: microdilution, Muller Hinton broth-cation adjusted, 0.02% BSA, 0.2% acetic acid", "summary_of_the_method": "as §1"}, "[7]": {"tested_on": "Staphylococcus aureus clinical strains", "format": "cell-based", "set-up": "Minimum inhibitory concentration: unit: μg/ml", "details": "microdilution, Muller Hinton broth-cation adjusted, 0.02% BSA, 0.2% acetic acid", "summary_of_the_method": "as §1"}, "[8]": {"tested_on": "Enterobacter cloacae clinical strains", "format": "cell-based", "set-up": "Minimum inhibitory concentration: unit: μg/ml", "details": "microdilution, Muller Hinton broth-cation adjusted, 0.02% BSA, 0.2% acetic acid", "summary_of_the_method": "as §1"}, "[9]": {"tested_on": "Pseudomonas aeruginosa clinical strains", "format": "cell-based", "details": "microdilution, Muller Hinton broth-cation adjusted, 0.02% BSA, 0.2% acetic acid", "summary_of_the_method": "as §1"}, "[10]": {"tested_on": "all the bacteria and yeasts tested", "format": "cell-based", "summary_of_the_method": "as §1"}, "[11]": {"tested_on": "Klebsiella pneumoniae clinical strains", "format": "cell-based", "details": "microdilution, Muller Hinton broth-cation adjusted, 0.02% BSA, 0.2% acetic acid", "summary_of_the_method": "as §1"}, "[12]": {"tested_on": "Escherichia coli clinical strains", "format": "cell-based", "details": "microdilution, Muller Hinton broth-cation adjusted, 0.02% BSA, 0.2% acetic acid", "summary_of_the_method": "as §1"}, "[13]": {"tested_on": "C. parapsilosis clinical strains", "test": "MIC, clinical yeast strains", "format": "cell-based, Candida parapsilosis", "set-up": "unit: µg/ml", "summary_of_the_method": "as §1"}, "[14]": {"tested_on": "C. glabrata clinical strains", "test": "MIC, clinical yeast strains", "format": "cell-based, Candida glabrata", "set-up": "unit: µg/ml", "summary_of_the_method": "as §1"}}, "note": "Like-named read-outs stand apart in the source and are kept apart here. Square brackets hold non-standard residues; d marks the D form. Peptide text beside a SMILES is read from it."}
{"compound": "CC[C@@H](C)[C@@H](NC(=O)[C@@H](Cc1c[nH]c2ccccc12)NC(=O)[C@H](N)CCCCN)C(=O)N[C@@H](C(=O)N[C@H](Cc1c[nH]c2ccccc12)C(=O)N[C@H](CCCNC(=N)N)C(=O)N[C@H](Cc1c[nH]c2ccccc12)C(=O)N[C@H](CCCNC(=N)N)C(=O)N[C@H](Cc1ccccc1)C(=O)N[C@H](CCCCN)C(=O)N[C@H](CCCNC(=N)N)C(=O)O)C(C)C", "note": "[Chain201D] (H-[dK][dW][dI][dV][dW][dR][dW][dR][dF][dK][dR]-OH)", "values": [{"measurement": "Minimum inhibitory concentration", "setting": "[1]", "value": 8}, {"measurement": "Minimum inhibitory concentration", "setting": "[2]; Candida albicans clinical yeast strain 1", "value": 16}, {"measurement": "Minimum inhibitory concentration", "setting": "[2]; Candida albicans clinical yeast strain 2", "value": 8}, {"measurement": "Minimum inhibitory concentration", "setting": "[2]; Candida albicans clinical yeast strain 3", "value": 8}, {"measurement": "Minimum inhibitory concentration", "setting": "[2]; Candida albicans clinical yeast strain 4", "value": 16}, {"measurement": "Minimum inhibitory concentration", "setting": "[2]; Candida albicans clinical yeast strain 5", "value": 8}, {"measurement": "Minimum inhibitory concentration", "setting": "[3]; Streptococcus pneumoniae clinical strain 1", "value": 8}, {"measurement": "Minimum inhibitory concentration", "setting": "[3]; Streptococcus pneumoniae clinical strain 2", "value": 4}, {"measurement": "Minimum inhibitory concentration", "setting": "[3]; Streptococcus pneumoniae clinical strain 3", "value": 2}, {"measurement": "Minimum inhibitory concentration", "setting": "[3]; Streptococcus pneumoniae clinical strain 4", "value": 4}, {"measurement": "Minimum inhibitory concentration", "setting": "[3]; Streptococcus pneumoniae clinical strain 5", "value": 4}, {"measurement": "Minimum inhibitory concentration", "setting": "[4]; Serratia marcescens clinical strain 1", "value": 64}, {"measurement": "Minimum inhibitory concentration", "setting": "[4]; Serratia marcescens clinical strain 2", "value": 64}, {"measurement": "Minimum inhibitory concentration", "setting": "[4]; Serratia marcescens clinical strain 3", "value": 64}, {"measurement": "Minimum inhibitory concentration", "setting": "[4]; Serratia marcescens clinical strain 4", "value": 64}, {"measurement": "Minimum inhibitory concentration", "setting": "[4]; Serratia marcescens clinical strain 5", "value": 128}, {"measurement": "MICs against Serratia marcescens", "setting": "[4]; clinical strains", "value": "64 to 128", "unit": "µg/mL"}, {"measurement": "Minimum inhibitory concentration", "setting": "[5]; Acinetobacter baumannii clinical strain 1", "value": 4}, {"measurement": "Minimum inhibitory concentration", "setting": "[5]; Acinetobacter baumannii clinical strain 2", "value": 4}, {"measurement": "Minimum inhibitory concentration", "setting": "[5]; Acinetobacter baumannii clinical strain 3", "value": 4}, {"measurement": "Minimum inhibitory concentration", "setting": "[5]; Acinetobacter baumannii clinical strain 4", "value": 4}, {"measurement": "Minimum inhibitory concentration", "setting": "[5]; Acinetobacter baumannii clinical strain 5", "value": 4}, {"measurement": "Minimum inhibitory concentration", "setting": "[6]; Proteus mirabilis clinical strain 1", "value": ">128"}, {"measurement": "Minimum inhibitory concentration", "setting": "[6]; Proteus mirabilis clinical strain 2", "value": 32}, {"measurement": "Minimum inhibitory concentration", "setting": "[6]; Proteus mirabilis clinical strain 3", "value": 64}, {"measurement": "Minimum inhibitory concentration", "setting": "[6]; Proteus mirabilis clinical strain 4", "value": ">128"}, {"measurement": "Minimum inhibitory concentration", "setting": "[6]; Proteus mirabilis clinical strain 5", "value": ">128"}, {"measurement": "MICs against Proteus mirabilis", "setting": "[6]; clinical strains", "value": "64 to 128", "unit": "µg/mL"}, {"measurement": "Minimum inhibitory concentration", "setting": "[7]; Staphylococcus aureus clinical strain 1", "value": 1}, {"measurement": "Minimum inhibitory concentration", "setting": "[7]; Staphylococcus aureus clinical strain 2", "value": 1}, {"measurement": "Minimum inhibitory concentration", "setting": "[7]; Staphylococcus aureus clinical strain 3", "value": 1}, {"measurement": "Minimum inhibitory concentration", "setting": "[7]; Staphylococcus aureus clinical strain 4", "value": 1}, {"measurement": "Minimum inhibitory concentration", "setting": "[7]; Staphylococcus aureus clinical strain 5", "value": 1}, {"measurement": "Minimum inhibitory concentration", "setting": "[8]; Enterobacter cloacae clinical strain 1", "value": 1}, {"measurement": "Minimum inhibitory concentration", "setting": "[8]; Enterobacter cloacae clinical strain 2", "value": 2}, {"measurement": "Minimum inhibitory concentration", "setting": "[8]; Enterobacter cloacae clinical strain 3", "value": 2}, {"measurement": "Minimum inhibitory concentration", "setting": "[8]; Enterobacter cloacae clinical strain 4", "value": 2}, {"measurement": "Minimum inhibitory concentration", "setting": "[8]; Enterobacter cloacae clinical strain 5", "value": 1}, {"measurement": "Minimum inhibitory concentration", "setting": "[9]; Pseudomonas aeruginosa clinical strain 1", "value": 4}, {"measurement": "Minimum inhibitory concentration", "setting": "[9]; Pseudomonas aeruginosa clinical strain 2", "value": 4}, {"measurement": "Minimum inhibitory concentration", "setting": "[9]; Pseudomonas aeruginosa clinical strain 3", "value": 4}, {"measurement": "Minimum inhibitory concentration", "setting": "[9]; Pseudomonas aeruginosa clinical strain 4", "value": 2}, {"measurement": "Minimum inhibitory concentration", "setting": "[9]; Pseudomonas aeruginosa clinical strain 5", "value": 2}, {"measurement": "MICs against all the bacteria and yeasts tested", "setting": "[10]", "value": "0.5 to 32", "unit": "µg/mL"}, {"measurement": "Minimum inhibitory concentration", "setting": "[11]; Klebsiella pneumoniae clinical strain 1", "value": 2}, {"measurement": "Minimum inhibitory concentration", "setting": "[11]; Klebsiella pneumoniae clinical strain 2", "value": 2}, {"measurement": "Minimum inhibitory concentration", "setting": "[11]; Klebsiella pneumoniae clinical strain 3", "value": 4}, {"measurement": "Minimum inhibitory concentration", "setting": "[11]; Klebsiella pneumoniae clinical strain 4", "value": 4}, {"measurement": "Minimum inhibitory concentration", "setting": "[11]; Klebsiella pneumoniae clinical strain 5", "value": 2}, {"measurement": "Minimum inhibitory concentration", "setting": "[12]; Escherichia coli clinical strain 1", "value": 16}, {"measurement": "Minimum inhibitory concentration", "setting": "[12]; Escherichia coli clinical strain 2", "value": 1}, {"measurement": "Minimum inhibitory concentration", "setting": "[12]; Escherichia coli clinical strain 3", "value": 1}, {"measurement": "Minimum inhibitory concentration", "setting": "[12]; Escherichia coli clinical strain 4", "value": 1}, {"measurement": "Minimum inhibitory concentration", "setting": "[12]; Escherichia coli clinical strain 5", "value": 1}, {"measurement": "Minimum inhibitory concentration", "setting": "[13]; C. parapsilosis clinical yeast strain 1", "value": 8}, {"measurement": "Minimum inhibitory concentration", "setting": "[13]; C. parapsilosis clinical yeast strain 2", "value": 8}, {"measurement": "Minimum inhibitory concentration", "setting": "[13]; C. parapsilosis clinical yeast strain 3", "value": 8}, {"measurement": "Minimum inhibitory concentration", "setting": "[13]; C. parapsilosis clinical yeast strain 4", "value": 8}, {"measurement": "Minimum inhibitory concentration", "setting": "[14]; C. glabrata clinical yeast strain 1", "value": 8}, {"measurement": "Minimum inhibitory concentration", "setting": "[14]; C. glabrata clinical yeast strain 2", "value": 8}, {"measurement": "Minimum inhibitory concentration", "setting": "[14]; C. glabrata clinical yeast strain 3", "value": 8}, {"measurement": "Minimum inhibitory concentration", "setting": "[14]; C. glabrata clinical yeast strain 4", "value": 64}]}
